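Briefly, cells in 96-well plates were exposed to five compound concentrations for 48 h, and endpoints were estimated by linear interpolation. At the GI50, growth is halved. TGI: concentration producing complete growth inhibition.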
Assays:
Assay in all cases: growth of human tumour cells (NCI), 48 h
[1] = system: OVCAR-3 ovarian
[2] = system: MDA-MB-435
[3] = system: A498 renal
[4] = system: HCC-2998 colon
[5] = system: SK-MEL-28 melanoma
[6] = system: HCT-15 colon
[7] = system: M14 melanoma
[8] = system: SK-MEL-5 melanoma
[9] = system: SN12C renal
[10] = system: SW-620 colon
[11] = system: OVCAR-8 ovarian
[12] = system: OVCAR-5 ovarian
[13] = system: 786-0 renal
[14] = system: MCF7 breast
[15] = system: U251 CNS
[16] = system: RPMI-8226 leukemia
[17] = system: ACHN renal
[18] = system: MOLT-4 leukemia
[19] = system: HOP-62 NSCLC
[20] = system: KM12 colon
[21] = system: HOP-92 NSCLC
[22] = system: NCI-H23 lung
[23] = system: SNB-75 CNS
[24] = system: MDA-MB-231 breast
[25] = system: NCI-H226 lung
[26] = system: NCI-H522 lung
[27] = system: PC-3 prostate
[28] = system: T-47D breast

SMILES: COc1ccc(-c2nnc3n(C)c(=O)c4ccccc4n23)cc1O
- GI50 [1]: 0.162 µM
- TGI [1]: 12.7 µM
- GI50 [2]: 0.065 µM
- TGI [2]: 0.221 µM
- GI50 [3]: 6.42 µM
- TGI [3]: 36.6 µM
- GI50 [4]: 2.98 µM
- TGI [4]: 97.9 µM
- GI50 [5]: 12.2 µM
- TGI [5]: > 100 µM
- GI50 [6]: 0.153 µM
- TGI [6]: > 100 µM
- GI50 [7]: 0.127 µM
- TGI [7]: 25.9 µM
- GI50 [8]: 0.15 µM
- TGI [8]: > 100 µM
- GI50 [9]: 1.47 µM
- TGI [9]: > 100 µM
- GI50 [10]: 0.149 µM
- TGI [10]: > 100 µM
- GI50 [11]: 1.52 µM
- TGI [11]: > 100 µM
- GI50 [12]: 15.8 µM
- TGI [12]: > 100 µM
- GI50 [13]: 2.57 µM
- TGI [13]: 28 µM
- GI50 [14]: 0.13 µM
- TGI [14]: > 100 µM
- GI50 [15]: 0.263 µM
- TGI [15]: 20.8 µM
- GI50 [16]: 5.01 µM
- TGI [16]: > 100 µM
- GI50 [17]: 1.15 µM
- TGI [17]: > 100 µM
- GI50 [18]: 1.17 µM
- TGI [18]: > 100 µM
- GI50 [19]: 0.176 µM
- TGI [19]: 19.8 µM
- GI50 [20]: 0.152 µM
- TGI [20]: > 100 µM
- GI50 [21]: 1.31 µM
- TGI [21]: 61.5 µM
- GI50 [22]: 3.01 µM
- TGI [22]: > 100 µM
- GI50 [23]: 0.161 µM
- TGI [23]: 27.6 µM
- GI50 [24]: 2.29 µM
- TGI [24]: 31.7 µM
- GI50 [25]: 16.9 µM
- TGI [25]: > 100 µM
- GI50 [26]: 0.0827 µM
- TGI [26]: 1.98 µM
- GI50 [27]: 0.611 µM
- TGI [27]: > 100 µM
- GI50 [28]: 2.41 µM
- TGI [28]: > 100 µM

— PubChem BioAssay (NCI)
